Results: PMC10404814, “Fluorescent membrane potential assay for drug screening on Kv10.1 channel: identification of BL-1249 as a channel activator” (Frontiers in Pharmacology, 2023)
Values belong to the molecule of their own block, whether it stands above or below them.

Experiments:
Format in all cases: cell-based
Kv10.1 [1] = molecular target: T1, Kv10.1 (Homo sapiens, UniProt O95259); experiment: FLIPR membrane potential assay in HEK-Kv10.[…] cells, […]; settings: read-out: % decrease at 50 μM
T1 construct: gene KCNH1
T1 sequence (O95259 1-989): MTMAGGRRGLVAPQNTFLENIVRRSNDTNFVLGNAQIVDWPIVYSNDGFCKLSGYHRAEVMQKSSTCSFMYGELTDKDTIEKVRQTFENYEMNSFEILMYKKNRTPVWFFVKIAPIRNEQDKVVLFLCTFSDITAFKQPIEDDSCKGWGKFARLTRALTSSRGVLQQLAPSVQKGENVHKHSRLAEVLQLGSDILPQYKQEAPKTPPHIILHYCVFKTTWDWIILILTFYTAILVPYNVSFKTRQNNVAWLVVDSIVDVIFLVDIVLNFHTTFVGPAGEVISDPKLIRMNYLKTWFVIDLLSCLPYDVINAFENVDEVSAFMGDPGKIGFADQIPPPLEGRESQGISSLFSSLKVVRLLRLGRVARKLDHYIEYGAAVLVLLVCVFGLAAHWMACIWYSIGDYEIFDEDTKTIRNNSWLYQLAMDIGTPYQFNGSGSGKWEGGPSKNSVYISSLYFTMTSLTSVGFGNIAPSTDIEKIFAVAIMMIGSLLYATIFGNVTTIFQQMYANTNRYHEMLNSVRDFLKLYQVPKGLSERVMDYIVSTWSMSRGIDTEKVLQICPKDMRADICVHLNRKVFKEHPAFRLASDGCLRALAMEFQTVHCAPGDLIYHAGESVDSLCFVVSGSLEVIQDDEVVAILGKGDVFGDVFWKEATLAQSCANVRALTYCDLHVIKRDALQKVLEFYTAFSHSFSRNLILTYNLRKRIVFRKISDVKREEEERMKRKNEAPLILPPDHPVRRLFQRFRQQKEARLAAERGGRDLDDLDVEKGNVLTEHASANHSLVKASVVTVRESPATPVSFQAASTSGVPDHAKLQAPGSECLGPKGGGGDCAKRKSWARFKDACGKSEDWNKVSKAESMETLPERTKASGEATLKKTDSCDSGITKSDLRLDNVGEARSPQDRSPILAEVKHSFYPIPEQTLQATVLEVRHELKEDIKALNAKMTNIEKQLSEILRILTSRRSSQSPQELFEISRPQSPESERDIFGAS

Kv10.1 [2] = molecular target: T1, Kv10.1; experiment: whole-cell voltage-clamp of HEK293 cells stably expressing human Kv10.[…]
Kv10.1 [3] = molecular target: T1, Kv10.1; experiment: whole-cell voltage-clamp of HEK293 cells stably expressing human Kv10.[…] (activator); no effect in HEK-WT
Kv10.1 [4] = molecular target: T1, Kv10.1; experiment: FLIPR membrane potential assay in HEK-Kv10.[…] cells, […]; settings: read-out: % decrease at 100 μM

Compound: COc1ccc(CCN2CCC(Nc3nc4ccccc4n3Cc3ccc(F)cc3)CC2)cc1 [astemizole]
inhibition at 50 µM (Kv10.1 [1]): 34.8%

Compound: Clc1ccc(COC(Cn2ccnc2)c2ccc(Cl)cc2Cl)c(Cl)c1 (stereo not drawn) [MN, miconazole nitrate]
IC50 (Kv10.1 [2]): 23.6 ± 5 µM

Compound: CNCCC(Oc1ccc(C(F)(F)F)cc1)c1ccccc1 (stereo not drawn) [fluoxetine]
IC50 (Kv10.1 [2]): 11.2 ± 6.2 µM

EC50 (Kv10.1 [3]): 36.5 µM
Compound: c1ccc(-c2nnn[nH]2)c(Nc2cccc3c2CCCC3)c1 [BL, BL-1249]

Compound: CN(C)CCC=C1c2ccccc2CCc2ccccc21 [amitriptyline]
inhibition at 100 µM (Kv10.1 [4]): 25.5%

Compound: CN(C)C(=O)C(CCN1CCC(O)(c2ccc(Cl)cc2)CC1)(c1ccccc1)c1ccccc1 [loperamide]
inhibition at 100 µM (Kv10.1 [4]): 31.9%
